In general, IC50 refers to the concentration at which inhibition is half-maximal.

This note sets out measurements from patent US12202835B2, “Substituted aromatic ring-linked dioxinoquinazolines and dioxinoquinolines as kinase inhibitors” (BEIJING SCITECH-MQ PHARMACEUTICALS LIMITED, priority 2018, dated 2025).

The test system of assay [1] is Ba/F3-AXL cells. Briefly: Assay for inhibiting the proliferation of Ba/F3-AXL cells (CCK-8). It counts as cell-based. As to conditions: 72 hours of incubation, medium with 100 ng/mL hGas6, CCK-8. Here is the method: The values were then imported into Graphpad Prism 5 software for curve fitting, and IC50 was calculated.
The target in assay [2] is MER kinase (Homo sapiens (Human), UniProt Q12866). Put plainly: Assay of small molecular compounds for inhibiting the activity of MER kinase (LANCE TR-FRET). It counts as biochemical. In short, it runs like this:
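LANCE TR-FRET readout of ULight-poly GT phosphorylation by MER kinase; compound final range 0.042-2500 nM, 3-fold steps, 5 min enzyme preincubation. Reaction 60 min at room temperature in the dark with substrate/ATP (4× at 200 nM/20 μM), 1% DMSO, then stopped and developed 60 min; IC50 by curve fit.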
(Time-resolved FRET reads energy transfer from a long-lived donor to a nearby acceptor.)

For assay [3], the system named is EBC1 cells. Put plainly: Assay for inhibiting the proliferation of EBC1 cells (CCK-8). As to conditions: Homo sapiens, EBC-1. It counts as cell-based. The method, boiled down:
(§1)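 Cells seeded in 96-well plates overnight, then exposed 72 h to 9 three-fold dilutions of compound (0.25% DMSO final). Viability by CCK-8 (1-2 h at 37° C., OD 450 nm), survival normalized to untreated and cell-free blanks; IC50 by curve fitting.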

For assay [4], the system named is MHCC97H cells. Put plainly: Assay for inhibiting the proliferation of MHCC97H cells (CCK-8). It counts as cell-based. As to conditions: Homo sapiens. In short, it runs like this: as §1

MER kinase, sequence (Q12866 21-999): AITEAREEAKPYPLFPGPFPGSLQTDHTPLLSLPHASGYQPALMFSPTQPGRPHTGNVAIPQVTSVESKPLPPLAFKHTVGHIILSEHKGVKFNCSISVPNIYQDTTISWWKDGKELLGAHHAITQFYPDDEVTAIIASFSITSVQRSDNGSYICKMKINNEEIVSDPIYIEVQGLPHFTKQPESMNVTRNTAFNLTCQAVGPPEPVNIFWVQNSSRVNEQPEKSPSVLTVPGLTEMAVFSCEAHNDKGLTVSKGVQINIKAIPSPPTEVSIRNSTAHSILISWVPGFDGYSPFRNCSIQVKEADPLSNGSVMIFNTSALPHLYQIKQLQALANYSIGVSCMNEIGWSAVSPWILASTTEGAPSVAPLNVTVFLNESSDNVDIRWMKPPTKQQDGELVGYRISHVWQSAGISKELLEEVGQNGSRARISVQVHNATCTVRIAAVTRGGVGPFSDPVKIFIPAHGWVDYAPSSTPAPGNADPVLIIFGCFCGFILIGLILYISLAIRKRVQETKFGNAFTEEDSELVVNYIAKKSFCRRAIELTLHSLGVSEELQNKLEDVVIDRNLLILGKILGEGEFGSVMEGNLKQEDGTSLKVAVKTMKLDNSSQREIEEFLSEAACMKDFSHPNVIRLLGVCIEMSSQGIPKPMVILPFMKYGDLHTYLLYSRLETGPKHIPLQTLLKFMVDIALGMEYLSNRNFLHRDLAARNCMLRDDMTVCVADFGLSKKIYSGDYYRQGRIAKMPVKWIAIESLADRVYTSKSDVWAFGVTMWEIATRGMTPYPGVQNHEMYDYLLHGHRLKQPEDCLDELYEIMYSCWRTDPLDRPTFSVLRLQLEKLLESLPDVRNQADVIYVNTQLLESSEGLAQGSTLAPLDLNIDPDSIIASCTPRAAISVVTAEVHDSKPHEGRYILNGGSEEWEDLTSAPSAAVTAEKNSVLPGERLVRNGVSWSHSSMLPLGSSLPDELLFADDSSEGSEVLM

Turning to `CCn1cc(C(=O)Nc2ccc(Oc3ccnc4cc(OCCOC)c5c(c34)OCCO5)c(F)c2)c(=O)n(-c2ccc(F)cc2)c1=O` [Example 44, N-(3-fluoro-4-((5-(2-methoxyethoxy)-2,3-dihydro-[1,4]dioxino[2,3-f]quinolin-10-yl)oxy)phenyl)-3-(4-fluorophenyl)-1-ethyl-2,4-dioxo-1,2,3,4-tetrahydropyrimidine-5-carboxamide], the IC50 is less than 0.05 µM in assay [1], not above 0.05 µM in assay [2], not above 0.05 µM in assay [3] and not above 0.05 µM in assay [4].

With `COc1cc2nccc(Oc3ccc(NC(=O)c4cn(CCO)c(=O)n(-c5ccc(F)cc5)c4=O)cc3F)c2c2c1OCCO2` [Example 45, N-(3-fluoro-4-((5-methoxy-2,3-dihydro-[1,4]dioxino[2,3-f]quinolin-10-yl)oxy)phenyl)-3-(4-fluorophenyl)-1-(2-hydroxyethyl)-2,4-dioxo-1,2,3,4-tetrahydropyrimidine-5-carboxamide], the IC50 in assay [1] is less than 0.05 µM; in assay [2], not above 0.05 µM; in assay [3], 0.05 to 0.2 µM; in assay [4] it was 0.2 to 1 µM.

Regarding `COCCn1cc(C(=O)Nc2ccc(Oc3ccnc4cc(OC)c5c(c34)OCCO5)c(F)c2)c(=O)n(-c2ccc(F)cc2)c1=O` [Example 46, N-(3-fluoro-4-((5-methoxy-2,3-dihydro-[1,4]dioxino[2,3-f]quinolin-10-yl)oxy)phenyl)-3-(4-fluorophenyl)-1-(2-methoxyethyl)-2,4-dioxo-1,2,3,4-tetrahydropyrimidine-5-carboxamide], the IC50 in assay [1] was less than 0.05 µM; in assay [2], not above 0.05 µM; in assay [3], not above 0.05 µM; in assay [4], not above 0.05 µM.

As for `CCOc1ccn(-c2ccc(F)cc2)c(=O)c1C(=O)Nc1ccc(Oc2ccnc3cc(OCCCN4CCN(C)CC4)c4c(c23)OCCO4)c(F)c1` [Example 49, N-(3-fluoro-4-((5-(3-(4-methylpiperazin-1-yl)propoxy)-2,3-dihydro-[1,4]dioxino[2,3-f]quinolin-10-yl)oxy)phenyl)-1-(4-fluorophenyl)-4-ethoxy-2-oxo-1,2-dihydropyridine-3-carboxamide], the IC50 in assay [1] is less than 0.05 µM; in assay [2], not above 0.05 µM; in assay [3] it was not above 0.05 µM; in assay [4], not above 0.05 µM.

`CCOc1ccn(-c2ccc(F)cc2)c(=O)c1C(=O)Nc1ccc(Oc2ccnc3cc(OCCCN4CCN(C(C)=O)CC4)c4c(c23)OCCO4)c(F)c1` [Example 50, N-(4-((5-(3-(4-acetyl-piperazin-1-yl)propoxy)-2,3-dihydro-[1,4]dioxino[2,3-f]quinolin-10-yl)oxy)-3-fluorophenyl)-4-ethoxy-1-(4-fluorophenyl)-2-oxo-1,2-dihydropyridine-3-carboxamide]: the IC50 was less than 0.05 µM in assay [1], not above 0.05 µM in assay [2], not above 0.05 µM in assay [3] and not above 0.05 µM in assay [4].

With `CCOc1ccn(-c2ccc(F)cc2)c(=O)c1C(=O)Nc1ccc(Oc2ccnc3cc(OCCCN4CCS(=O)(=O)CC4)c4c(c23)OCCO4)c(F)c1` [Example 51, N-(4-((5-(3-(1,1-dioxidothiomorpholino)propoxy)-2,3-dihydro-[1,4]dioxino[2,3-f]quinolin-1 0-yl)oxy)-3-fluorophenyl)-4-ethoxy-1-(4-fluorophenyl)-2-oxo-1,2-dihydropyridine-3-carboxamide], the IC50 was less than 0.05 µM in assay [1], not above 0.05 µM in assay [2], not above 0.05 µM in assay [3] and not above 0.05 µM in assay [4].

Take `CCOc1ccn(-c2ccc(F)cc2)c(=O)c1C(=O)Nc1ccc(Oc2ccnc3cc(OCCO)c4c(c23)OCCO4)c(F)c1` [Example 53, N-(4-((5-(2-hydroxyethoxy)-2,3-dihydro-[1,4]dioxino[2,3-f]quinolin-10-yl)oxy)-3-fluorophenyl)-4-ethoxy-1-(4-fluorophenyl)-2-oxo-1,2-dihydropyridine-3-carboxamide]: the IC50 in assay [1] was less than 0.05 µM; in assay [2] it was not above 0.05 µM; in assay [3], not above 0.05 µM; in assay [4] it was not above 0.05 µM.
